Data set [1] deals with human recombinant dopamine D3 receptor (Homo sapiens (Human), UniProt P35462). Description: Test of binding inhibition for dopamine D3 receptor ([3H]-Methylspiperone SPA). The settings on record: Jump-In HEK cell membranes, 2 nM [3H]-Methylspiperone, 120 min at 25° C.; read-out: hD3_Ki. An outline of the steps: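 SPA radioligand binding on Jump-In HEK membranes expressing human D3 receptor (4 µg/well) with 2 nM [3H]-methylspiperone (final), incubated 120 min at 25 °C. Non-specific binding defined with 10 µM butaclamol. Percent inhibition computed against total and non-specific binding; Ki from dose-response curves.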

Data set [2] addresses human recombinant dopamine D2 receptor (Homo sapiens (Human), UniProt P14416). Kind of data set: Test of binding inhibition for dopamine D2 receptor ([3H]-Methylspiperone SPA). The note with it: Jump-In HEK cell membranes, read-out: hD2_Ki. A digest of the protocol:
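Incubation was 120 min at 25° C. with human recombinant D2 membranes from Jump-In HEK cells (2 μg/well), WGA SPA beads (0.2 mg/well) and [3H]-Methylspiperone as radioligand.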

The next data set concerns the target hERG channel (IKr) (Homo sapiens (Human), UniProt Q12809). Description: hERG test (whole cell patch clamp, IKr). The format is cell-based. The settings on record: human, CHO cells expressing hERG channel, pH 7.4, 3 μM, tail peak current.
[3] abbreviates: 1.2 nM [3H]-Methylspiperone, 120 min at 25° C.

The values below come from patent US11578084B2, “Condensed ring compounds having dopamine D3 receptor antagonistic effect” (Shionogi & Co., Ltd., priority 2018, dated 2023).

Read-outs that look alike come from different tables or passages of the source.

What is called inhibition is how much of the control response was suppressed. High values mean a response far below the control, low ones a response near the control.

hERG channel (IKr), sequence (Q12809 whole entry): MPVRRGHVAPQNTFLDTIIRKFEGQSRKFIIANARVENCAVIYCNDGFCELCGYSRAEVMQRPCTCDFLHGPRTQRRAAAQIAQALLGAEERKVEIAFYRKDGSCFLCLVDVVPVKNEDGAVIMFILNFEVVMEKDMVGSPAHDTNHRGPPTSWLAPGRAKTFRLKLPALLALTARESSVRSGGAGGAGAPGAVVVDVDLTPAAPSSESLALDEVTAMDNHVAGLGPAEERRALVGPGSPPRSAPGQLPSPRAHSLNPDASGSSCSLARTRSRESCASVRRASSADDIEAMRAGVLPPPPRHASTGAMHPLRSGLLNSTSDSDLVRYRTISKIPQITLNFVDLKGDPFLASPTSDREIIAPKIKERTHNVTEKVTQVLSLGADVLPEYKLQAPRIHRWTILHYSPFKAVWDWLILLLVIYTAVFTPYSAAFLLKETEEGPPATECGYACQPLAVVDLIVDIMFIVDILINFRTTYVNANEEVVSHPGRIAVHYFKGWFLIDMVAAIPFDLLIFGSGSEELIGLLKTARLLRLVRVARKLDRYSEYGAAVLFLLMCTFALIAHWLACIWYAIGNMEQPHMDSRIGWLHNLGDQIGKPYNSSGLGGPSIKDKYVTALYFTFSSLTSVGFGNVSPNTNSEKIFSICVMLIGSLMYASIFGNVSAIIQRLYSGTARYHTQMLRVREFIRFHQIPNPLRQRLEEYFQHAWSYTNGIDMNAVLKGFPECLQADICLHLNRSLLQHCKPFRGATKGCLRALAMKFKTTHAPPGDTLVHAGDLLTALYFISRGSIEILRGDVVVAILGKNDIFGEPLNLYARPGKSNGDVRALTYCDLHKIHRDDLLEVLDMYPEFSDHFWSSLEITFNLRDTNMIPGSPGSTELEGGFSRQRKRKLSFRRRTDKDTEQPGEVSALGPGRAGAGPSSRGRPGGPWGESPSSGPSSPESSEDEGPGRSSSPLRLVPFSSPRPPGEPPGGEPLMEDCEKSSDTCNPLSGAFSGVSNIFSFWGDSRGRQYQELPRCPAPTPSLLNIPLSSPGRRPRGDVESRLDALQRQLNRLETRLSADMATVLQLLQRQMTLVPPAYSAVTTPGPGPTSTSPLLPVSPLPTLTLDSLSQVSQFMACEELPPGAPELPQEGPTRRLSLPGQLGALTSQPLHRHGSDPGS
human recombinant dopamine D2 receptor, sequence (P14416 whole entry): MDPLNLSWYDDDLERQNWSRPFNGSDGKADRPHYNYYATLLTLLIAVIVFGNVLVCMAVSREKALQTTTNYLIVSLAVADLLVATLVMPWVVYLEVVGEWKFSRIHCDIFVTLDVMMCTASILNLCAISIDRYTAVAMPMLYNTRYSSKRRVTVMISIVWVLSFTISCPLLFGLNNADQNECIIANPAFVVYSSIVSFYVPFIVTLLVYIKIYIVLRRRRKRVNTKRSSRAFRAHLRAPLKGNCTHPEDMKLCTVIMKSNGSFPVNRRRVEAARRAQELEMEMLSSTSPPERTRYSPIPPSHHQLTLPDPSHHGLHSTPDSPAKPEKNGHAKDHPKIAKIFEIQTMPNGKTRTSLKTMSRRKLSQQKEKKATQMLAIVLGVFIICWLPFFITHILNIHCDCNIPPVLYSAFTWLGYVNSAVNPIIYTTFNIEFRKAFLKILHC
human recombinant dopamine D3 receptor, sequence (P35462 whole entry): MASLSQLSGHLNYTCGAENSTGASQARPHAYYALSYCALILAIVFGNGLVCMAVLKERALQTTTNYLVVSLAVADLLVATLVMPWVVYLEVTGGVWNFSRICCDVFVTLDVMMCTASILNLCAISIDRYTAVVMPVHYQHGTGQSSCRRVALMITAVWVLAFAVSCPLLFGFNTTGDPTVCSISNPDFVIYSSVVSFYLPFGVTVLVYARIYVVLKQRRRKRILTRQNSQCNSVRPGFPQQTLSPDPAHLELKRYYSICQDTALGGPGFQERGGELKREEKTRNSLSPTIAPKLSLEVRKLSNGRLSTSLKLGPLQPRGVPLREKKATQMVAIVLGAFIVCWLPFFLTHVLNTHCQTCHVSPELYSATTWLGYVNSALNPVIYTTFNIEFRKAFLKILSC

With `Cn1cc(OCC(=O)N[C@H]2CC[C@](F)(CCN3CCc4nc(OCC(C)(F)F)sc4CC3)CC2)cn1` [Example I-075], the Ki in data set [1] was found to be 0.22 nM; in data set [2] (setting [3]) it was 240 nM. Further, the inhibition at 3 µM on hERG channel (IKr) came out at 33.8%.

As for `CC[C@@H](C)Oc1ccc2c(n1)CCN(CC[C@H]1CC[C@H](NC(=O)c3cccc4nn(C)cc34)CC1)CC2` [Example I-076], the results for the Ki in data set [1] and in data set [2] (setting [3]) were 0.1 nM and > 1900 nM, respectively. For the same compound, at hERG channel (IKr), the inhibition at 3 µM stood at 13.4%.

For `Cn1cc2c(C(=O)NN3CCC(CCN4CCc5sc(OCC(C)(F)F)nc5C4)CC3)cccc2n1` [Example I-077], the Ki is 0.38 nM in data set [1] and > 1800 nM in data set [2] (setting [3]). At hERG channel (IKr), this compound showed an inhibition at 3 µM of 4.33%.

With `Cn1c(C(=O)NN2CCC(CCN3CCc4sc(OCC(F)(F)F)nc4C3)CC2)cccc1=O` [Example I-080], the Ki in data set [1] was 0.81 nM; in data set [2] (setting [3]), 2100 nM. In addition, on hERG channel (IKr), 3 µM produced 5.68% inhibition.

Turning to `Cn1cc2c(C(=O)NN3CCC(CCN4CCc5sc(OCC(F)(F)F)nc5C4)CC3)ccc(F)c2n1` [Example I-081], the Ki in data set [1] was 0.2 nM; in data set [2] (setting [3]), 640 nM. Moreover, the inhibition at 3 µM on hERG channel (IKr) was 5.59%.

Take `Cc1ncc(/C=C/C(=O)N[C@H]2CC[C@H](CCN3CCc4nc(OC5CC(F)(F)C5)sc4CC3)CC2)cn1` [Example I-082]: the Ki in data set [1] stood at 0.086 nM; in data set [2] (setting [3]), 670 nM. This compound also yielded an inhibition at 3 µM on hERG channel (IKr) of 11.1%.

As for `C[C@@H](Oc1nc2c(s1)CCN(CC[C@H]1CC[C@H](NC(=O)c3cccc4nn(C)cc34)CC1)CC2)C(F)(F)F` [Example I-083], the Ki in data set [1] was 0.16 nM; in data set [2] (setting [3]) it was > 2200 nM. The same compound yielded an inhibition at 3 µM against hERG channel (IKr) of 25.1%.

Take `CCc1ncccc1C(=O)N[C@H]1CC[C@H](CCN2CCc3ccc(OC4CCC4)nc3CC2)CC1` [Example I-088]: the results for the Ki in data set [1] and in data set [2] (setting [3]) were 0.8 nM and 1300 nM, respectively. The same compound showed an inhibition at 3 µM at hERG channel (IKr) of 32%.

With `Cc1ncccc1C(=O)N[C@H]1CC[C@H](CCN2CCc3nc(OCCC(F)(F)F)sc3CC2)CC1` [Example I-099], the Ki in data set [1] worked out at 0.97 nM; in data set [2] (setting [3]) it was 1600 nM. On hERG channel (IKr), this compound gave an inhibition at 3 µM of 29.4%.

Consider `Cc1nnc(CC(=O)N[C@H]2CC[C@H](CCN3CCc4nc(OCCC(F)(F)F)sc4CC3)CC2)o1` [Example I-100], for which the Ki in data set [1] was found to be 0.72 nM; in data set [2] (setting [3]), 1500 nM. The compound further displayed an inhibition at 3 µM against hERG channel (IKr) of 33.9%.

Regarding `Cn1cc(CC(=O)N[C@H]2CC[C@H](CCN3CCc4nc(OCCC(F)(F)F)sc4CC3)CC2)cn1` [Example I-101], the results for the Ki in data set [1] and in data set [2] (setting [3]) were 0.3 nM and 2200 nM, respectively. Further, the inhibition at 3 µM at hERG channel (IKr) stood at 34.9%.

Consider `Cc1ncc(CC(=O)N[C@H]2CC[C@H](CCN3CCc4nc(OCCC(F)(F)F)sc4CC3)CC2)o1` [Example I-102], for which the Ki in data set [1] was 0.13 nM; in data set [2] (setting [3]) it was 670 nM. The compound further yielded an inhibition at 3 µM against hERG channel (IKr) of 32.2%.

With `Cn1cc2c(C(=O)N[C@H]3CC[C@H](CCN4CCc5sc(OCC(C)(F)F)nc5C4)CC3)c(F)ccc2n1` [Example I-103], the Ki came to 0.17 nM in data set [1] and 340 nM in data set [2] (setting [3]). Also, at 3 µM the inhibition at hERG channel (IKr) was 26%.

Consider `Cn1cc(CC(=O)N[C@H]2CC[C@](F)(CCN3CCc4ccc(OC5CCC5)nc4CC3)CC2)cn1` [Example I-104], for which the Ki in data set [1] is 0.68 nM; in data set [2] (setting [3]) it was > 2300 nM. The compound further registered an inhibition at 3 µM against hERG channel (IKr) of 16.3%.

Regarding `Cc1cnc(CC(=O)N[C@H]2CC[C@](F)(CCN3CCc4ccc(OC5CCC5)nc4CC3)CC2)o1` [Example I-105], the Ki in data set [1] was 0.96 nM; in data set [2] (setting [3]), > 2300 nM. Besides, at hERG channel (IKr), the inhibition at 3 µM came out at 30.1%.

As for `Cc1nc(CC(=O)N[C@H]2CC[C@H](CCN3CCc4nc(OCC(F)(F)F)sc4CC3)CC2)n(C)n1` [Example I-107], the figures for the Ki in data set [1] and in data set [2] (setting [3]) were 0.54 nM and 1000 nM, respectively. At hERG channel (IKr), this compound gave an inhibition at 3 µM of 3.75%.

For the compound `CC[C@@H](C)Oc1ccc2c(n1)CCN(CC[C@]1(F)CC[C@@H](NC(=O)Cc3nnc(C)o3)CC1)CC2` [Example I-108], the Ki is 0.89 nM in data set [1] and 1200 nM in data set [2] (setting [3]). Moreover, 3 µM produced 1.06% inhibition on hERG channel (IKr).

With `CC[C@@H](C)Oc1ccc2c(n1)CCN(CC[C@]1(F)CC[C@@H](NC(=O)Cc3nnc(C)s3)CC1)CC2` [Example I-109], the figures for the Ki in data set [1] and in data set [2] (setting [3]) were 0.26 nM and 610 nM, respectively. At hERG channel (IKr), at 3 µM the inhibition was 27%.

Take `CC[C@@H](C)Oc1ccc2c(n1)CCN(CC[C@H]1CC[C@H](NC(=O)Cc3cnn(C)n3)CC1)CC2` [Example I-111]: the Ki in data set [1] was found to be 0.17 nM; in data set [2] (setting [3]) it was 1600 nM. For the same compound, the inhibition at 3 µM on hERG channel (IKr) is 14.6%.

For the compound `Cn1c(C(=O)N[C@H]2CC[C@](F)(CCN3CCc4nc(OCCC(F)(F)F)sc4CC3)CC2)cccc1=O` [Example I-113], the results for the Ki in data set [1] and in data set [2] (setting [3]) were 0.87 nM and > 2200 nM, respectively. On hERG channel (IKr), this compound registered an inhibition at 3 µM of 6.89%.

As to `Cc1nc(CC(=O)N[C@H]2CC[C@](F)(CCN3CCc4nc(OCCC(F)(F)F)sc4CC3)CC2)no1` [Example I-114], the Ki is 0.59 nM in data set [1] and > 2200 nM in data set [2] (setting [3]). The same compound registered an inhibition at 3 µM against hERG channel (IKr) of 29%.

As to `COC(CN1CCc2sc(OCC(F)(F)F)nc2C1)[C@H]1CC[C@H](NC(=O)c2cccc3nn(C)cc23)CC1` (stereo partly drawn) [Example I-186], the figures for the Ki in data set [1] and in data set [2] (setting [3]) were 0.22 nM and 270 nM, respectively. The compound further displayed an inhibition at 3 µM against hERG channel (IKr) of 16.8%.

`Cn1ncc(CC(=O)N[C@H]2CC[C@](F)(CCN3CCc4nc(OCC(F)(F)F)sc4CC3)CC2)n1` [I′-37]: the results for the Ki in data set [1] and in data set [2] ([3H]-Methylspiperone 1.2 nM) were 0.18 nM and 1600 nM, respectively. On hERG channel (IKr), 3 µM produced 19.6% inhibition.

For `Cn1ncc(CC(=O)N[C@H]2CC[C@H](CCN3CCc4nc(OCC(C)(F)F)sc4CC3)CC2)n1` [I′-38], the Ki in data set [1] is 0.043 nM; in data set [2] ([3H]-Methylspiperone 1.2 nM) it was 1000 nM. Moreover, the inhibition at 3 µM against hERG channel (IKr) stood at 20.6%.

`Cn1ncc(CC(=O)N[C@H]2CC[C@](F)(CCN3CCc4nc(OCC(F)F)sc4CC3)CC2)n1` [I′-41]: the figures for the Ki in data set [1] and in data set [2] ([3H]-Methylspiperone 1.2 nM) were 0.49 nM and 1900 nM, respectively. At hERG channel (IKr), the inhibition at 3 µM is 24%.
